Converted amounts (≈) assume the structure as drawn.
Experiments:
Assay type in all cases: cell-based
[1] = test system: DNA synthesis in E. coli JL553; assay: Macromolecule synthesis labeling; conditions: E. coli JL553, 25 min exposure, labeled precursor incorporation
Description: Macromolecule synthesis profiling was conducted as described by Montgomery, et al. with minor modifications. E. coli strain JL553 (tolC, lysE) was used to measure inhibition of DNA, RNA, protein, peptidoglycan and phospholipid biosynthesis while E. coli MB5500 (lpxC [envA1], galE; Merck & Co., Inc., Kenilworth, NJ, USA, strain collection) was used to measure inhibition of lipopolysaccharide biosynthesis. Radioisotope labeled precursors were used at the following final concentrations [2-^14C]-thymidine (2.5 μCi/mL), [^14C(U)]-uridine (0.5 μCi/mL), L-[4, 5-^3H]-leucine (5 μCi/mL), [2-^3H]-glycerol (2 μCi/mL), [^3H]-diaminopimelic acid (3 μCi/mL), D-[1-^14C]-galactose (0.5 μCi/mL). Compound concentrations (3-fold serial dilutions) were chosen to place the minimum inhibitory concentration (see below) near the center of the dose range. Labeled cultures were incubated with compound for 25 min; stopped with trichloroacetic acid, filtered and incorporation was measured as described. Percent inhibition of incorporation was calculated relative to an untreated control culture for each labeled precursor and plotted with GraphPad Prism.

[2] = test system: E. coli BW25113 ΔtolC; assay: Broth microdilution MIC, E. coli BW25113 ΔtolC; conditions: Escherichia coli
From the text: (§1) E. coli HS151 (ΔtolC) has been described previously. Gyrase inhibitor-resistant isolates (GYR101-108) were derived by selection for spontaneous resistance to MRL-770 or MRL-423 (Fig 1) in E. coli HS151 as described below. E. coli BW25113 and the Keio gene deletion collection based on BW25113 [25] were obtained from Thermo Fisher Scientific (Waltham, MA) and described in [26]. The plasmid-borne FQ resistance determinant, qnrVC3 [27], was kindly provided by D. Hooper (Massachusetts General Hospital). MB9796 (A. baumannii) is a derivative of MB9797 (ATCC19606) lacking lipopolysaccharide. The efflux-defective P. aeruginosa strain MB5890 (CB398) is a derivative of MB5919 (PAO1). MB2884 (E. coli) and CL15245 (K. pneumoniae) are clinical isolates from the Merck & Co., Inc., Kenilworth, NJ, USA, strain collection. S. aureus COL is a methicillin-resistant clinical isolate.
(§2) Compound doubling dilutions were prepared in 100% DMSO (Sigma Aldrich) and 2 μL of each dilution was transferred to a 96-well plate with lid (Thermo Scientific). Inoculum for all MIC testing was prepared using the BBL Prompt Inoculation System (Becton Dickinson, Franklin Lakes, NJ USA) as described by the manufacturer to produce a suspension of cells at approximately 1.5 x 10^8 colony forming units (CFU)/mL [34–36] and a further dilution (1:1000) was made into cation adjusted Mueller-Hinton broth (CAMH broth, Becton-Dickinson). One hundred μL of this inoculum were then transferred to each well of the 96-well plate containing diluted compound (above). Plates were covered and incubated overnight (18 hrs.) at 37°C.
The yacG deletion allele from the Keio collection was amplified by PCR (primers: […] and […]) and moved to BW25113 ΔtolC as described below. The E. coli strain BW25113 ΔtolC containing pKD46 [25] was used to inoculate SOB (Invitrogen)/0.2% w/v arabinose (Sigma Aldrich)/ampicillin (100 μg/mL) and grown overnight at 30°C. The overnight culture was then diluted 1/40 into 20 mL fresh SOB/0.2% w/v arabinose/ampicillin (100 μg/mL) and grown at 30°C while shaking for ~3 hrs until OD600 = 0.5. […]

[3] = test system: E. coli HS151; assay: In vitro time-dependent bactericidal study; conditions: E. coli HS151; at the 4 hour time point
Description: A culture of E. coli HS151 in CAMH broth was grown overnight (18 hrs.) at 37°C, diluted 1:10,000 in 200 mL of fresh CAMH broth and further incubated for 1 hour at 37°C with shaking. A time-zero sample was then removed and 20 mL portions of the remaining culture were transferred into 125 mL vented flasks to which were added MRL-1082 or control antibiotics, at the indicated concentrations. These flasks were then incubated at 37°C with shaking (70 rpm). Samples were withdrawn at the indicated times, plated on blood agar (trypticase soy agar with 5% sheep blood, Becton-Dickinson) and, following overnight growth at 37°C, colonies were counted to determine CFU/mL.

[4] = test system: E. coli HS151 (ΔtolC); assay: microbe, parasite or virus in culture; conditions: Escherichia coli, Table 3; HS151
From the text: (§3) E. coli HS151 (ΔtolC) has been described previously. […] E. coli BW25113 and the Keio gene deletion collection based on BW25113 [25] were obtained from Thermo Fisher Scientific (Waltham, MA) and described in [26]. The plasmid-borne FQ resistance determinant, qnrVC3 [27], was kindly provided by D. Hooper (Massachusetts General Hospital). […] MB2884 (E. coli) and CL15245 (K. pneumoniae) are clinical isolates from the Merck & Co., Inc., Kenilworth, NJ, USA, strain collection. S. aureus COL is a methicillin-resistant clinical isolate.
as §2

[5] = test system: E. coli CIP101 GyrA D87N; assay: microbe, parasite or virus in culture; conditions: Escherichia coli
Description: as §2

[6] = test system: A. baumanii MB9797 (ATCC19606); assay: Broth microdilution MIC, A. baumannii MB9797; conditions: Acinetobacter baumannii
From the text: as §1, §2

[7] = test system: A. baumannii ΔlpxC MB9796; assay: Broth microdilution MIC, A. baumannii MB9796; conditions: Acinetobacter baumannii
From the text: as §1, §2

[8] = test system: E. coli GYR108 GyrB L470I/V467L; assay: microbe, parasite or virus in culture; conditions: Escherichia coli
From the text: as §3, §2
After the agar solidified, 5 μL of a saturated bacterial culture, grown in CAMH broth, were dispensed on the agar surface and allowed to dry at room temperature. […] After the surface dried at room temperature the plate was incubated at 37°C overnight. […] Genomic DNA from the parent strain (E. coli HS151) and purified (restreaked) resistant isolates was obtained with a GeneJET genomic DNA purification kit according to the manufacturer’s instructions (Fisher Scientific). Assembled whole genome mutant sequences were then compared to the parent strain and polymorphisms were identified as described.

[9] = test system: E. coli BW25113 ΔtolC/ΔyacG; assay: Broth microdilution MIC, E. coli BW25113 ΔtolC/ΔyacG; conditions: Escherichia coli, BW25113
Description: as §2
The yacG deletion allele from the Keio collection was amplified by PCR (primers: […] and […]) and moved to BW25113 ΔtolC as described below. The E. coli strain BW25113 ΔtolC containing pKD46 [25] was used to inoculate SOB (Invitrogen)/0.2% w/v arabinose (Sigma Aldrich)/ampicillin (100 μg/mL) and grown overnight at 30°C. The overnight culture was then diluted 1/40 into 20 mL fresh SOB/0.2% w/v arabinose/ampicillin (100 μg/mL) and grown at 30°C while shaking for ~3 hrs until OD600 = 0.5. Cells were pelleted by centrifugation at 4000 rpm for 10 min, washed with 40 mL ice cold sterile, distilled H2O, then 3 x 1 mL ice cold 10% glycerol followed by centrifugation at 5000 g for 3 minutes. The pellet was resuspended in 100 μL of 10% glycerol (1/200 of starting culture). For transformation, 5 μL of gel purified PCR product was added to 50 μL cells, mixed, and immediately electroporated in a 0.2 cm gap cuvette at 2.5kV, 25 μF, 200 Ω (BioRad, Hercules, CA USA). Electroporated cells were recovered in 1 mL SOC (Invitrogen)/0.2% arabinose at 37°C for 2 hours with shaking. Cells in amounts of 50 and 950 μL were then plated on LB agar supplemented with kanamycin (25 μg/mL) and incubated overnight at 37°C. Correct gene replacements were verified by PCR.

[10] = test system: E. coli GYR103 GyrB L446Q; assay: microbe, parasite or virus in culture; conditions: Escherichia coli
From the text: as §1, §2
After the agar solidified, 5 μL of a saturated bacterial culture, grown in CAMH broth, were dispensed on the agar surface and allowed to dry at room temperature. […] To select for resistance, a 100 mm petri dish was filled with 25 mL CAMH agar containing 8 μg/mL MRL-770 or 0.5 μg/mL MRL-423 (Fig 1). The cells in 1 mL of an overnight culture of E. coli HS151 (~10^9 CFU/mL) were concentrated by centrifugation and spread onto the surface of an MRL-770 or MRL-423 containing plate. After the surface dried at room temperature the plate was incubated at 37°C overnight. Any colonies that arose were counted and an approximate frequency of resistance was calculated after confirming resistance by restreaking on media containg compound as well as measuring MICs (see Results). Genomic DNA from the parent strain (E. coli HS151) and purified (restreaked) resistant isolates was obtained with a GeneJET genomic DNA purification kit according to the manufacturer’s instructions (Fisher Scientific). Assembled whole genome mutant sequences were then compared to the parent strain and polymorphisms were identified as described.

[11] = test system: E. coli HS151 (qnrVC); assay: Broth microdilution MIC, E. coli HS151 (qnrVC); conditions: Escherichia coli
From the text: as §1, §2

[12] = test system: S. aureus (MRSA) COL; assay: Broth microdilution MIC, S. aureus COL; conditions: Staphylococcus aureus, MRSA
From the text: as §1, §2

In the case of `O=C(O)c1cn(C2CC2)c2cc(N3CCNCC3)c(F)cc2c1=O` [ciprofloxacin], the “inhibition of macromolecule synthesis” value [1] is reported as “Dose-dependent, selective inhibition of DNA synthesis”, the MIC [2] is reported as 4 ng/mL (≈ 0.0121 µM) and the “culture viability, below lower limit of quantitation” value [3] is reported as under 20 CFU/mL. The MIC [4] was 4 ng/mL (≈ 0.0121 µM), the MIC [5] was 31.2 ng/mL (≈ 0.0943 µM) and the MIC [6] was over 125 ng/mL. It also gave an MIC [7] of 62.5 ng/mL (≈ 0.189 µM), an MIC [8] of 3.9 ng/mL (≈ 0.0118 µM) and an MIC [9] of 4 ng/mL (≈ 0.0121 µM). For the same molecule, the MIC [10] was 3.9 ng/mL (≈ 0.0118 µM), the MIC [11] was 30 ng/mL (≈ 0.0905 µM) and the MIC [12] was over 125 ng/mL.

— PMC5507300, “Antibacterial small molecules targeting the conserved TOPRIM domain of DNA gyrase” (PLoS ONE, 2017)
